Source: patent publication US20090018197A1, “METHODS FOR TREATING STATUS E[…] RELATED CONDITIONS” (priority 2003, published 2009)

Tests used:
Assay type in all cases: in vivo, rat
[1] = tested on: self-sustaining status epilepticus (SSSE); experiment: Experiment 1a: SSSE after electrical stimulation of the perforant path (60 min stimulation); conditions: male Wistar rats, i.v. 10 min after end of 60 min perforant path stimulation; SPM 927 50 mg/kg, PHT 50 mg/kg, DZP 10 mg/kg; vs control
Protocol: (§1) Animals: The experiments were performed on male Wistar rats, 280-300 g (Simonsen Labs, Calif.). Animals were kept at a constant room temperature with 12 hours artificial dark-light cycle with free access to standard diet and tap water.
(§2) Surgery: Under ketamine (60 mg/kg)/xylazine (15 mg/kg) anesthesia, animals were implanted with a bipolar stimulating electrode into the angular bundle of the perforant path (4.5 mm to left lambda, 1 mm anterior to lambdoid fissure) and a bipolar recording electrode into the granule cell layer of the ipsilateral dentate gyrus (3.5 mm anterior to lambda, 2.2 mm left to sagittal fissure). Depth of both electrodes was optimized by monitoring the amplitude and waveform of the population spike evoked from the dentate gyrus by stimuli delivered through the perforant path (single square wave monophasic stimuli, 20 V, 0.1 ms delivered every 10 s).
(§3) Induction of self-sustaining status epilepticus (SSSE): Seven days after surgery, animals were connected to a Cardionics 16 channel preamplifier, which was connected to the IBM computer. After 5 minutes of baseline EEG recording, animals were stimulated in the awake state for 60 minutes (Experiment 1a) or 30 minutes (Experiments 1b and 1c) with 10 s 20 Hz trains (1 ms square wave, 20 V) delivered every minute, together with 2 Hz continuous stimulation with the same parameters.
(§4) EEG monitoring and analysis: EEG from the dentate gyrus was monitored and recorded by means of commercial software (Monitor 8.1 from Stellate Systems). The software was configured for automatic detection and saving of spikes and seizures. Monitoring was performed for 24 hrs. EEG was analyzed off line by means of the same software. Spike distribution was presented as number of spikes per 10 min epoch, and the cumulated duration of seizures for 24 hrs of monitoring were calculated. Statistical analysis was performed by means of T-test. A p value less than 0.05 was considered statistically significant.
(§5) Drug administration: SPM 927 (50 mg/kg, 5 animals), phenyloin (PHT) (50 mg/kg), fosphenyloin (F-PTH, Parke-Davis, 50 mg/kg of phenyloin equivalent, 5 animals), diazepam (DZP) (10 mg/kg) or vehicle (VEH, 10% DMSO, 6 animals) were given i.v. 10 min after the end of perforant path stimulation in a volume of 1 ml/kg.

[2] = tested on: self-sustaining status epilepticus (SSSE); experiment: Experiment 1b: SSSE after electrical stimulation of the perforant path (30 min stimulation), SPM 927 vs fosphenyloin; conditions: male Wistar rats, 50 mg/kg i.v. 10 min after end of 30 min stimulation; for spike frequency (number of spikes/10 min): vs control
Protocol: as §1, §2, §3, §4, §5

[3] = tested on: hippocampal damage following SSSE; experiment: Experiment 1c: hippocampal damage following SSSE (damaged neuron score); conditions: for hippocampal damage score, CA1 / hippocampal damage score, CA3 / hippocampal damage score, Hilus / hippocampal damage score, Subiculum: scale 0-5, brains collected 72 hours after SSSE
Protocol: as §1, §2, §3, §5
Collection of tissue: Brains were collected 72 hours after SSSE. This was accomplished by transcardial perfusion with first heparinized normal saline for about 2 minutes to largely clear the vasculature of blood and second by phosphate buffered formaldehyde (10% formaldehyde at pH 7.4) for 10 to 15 min (approximately 50 to 60 ml). Carcasses were placed in the refrigerator overnight to further firm the tissue and the brains were dissected from the heads the following day.
Preparation of brain sections for light microscopy: after Removal, the Brains were passed through a graded series of alcohol and clearing agent (Hemo-De, Fisher) and then embedded in paraffin. Serial 8 micron-thick coronal sections were cut from the embedded tissue at approximately 100 micron intervals and float mounted onto microscope slides. The sections were stained with hematoxylin and eosin and coverslipped.
Selection of sections for counting: Selection of sections for counting was controlled by the stereotaxic atlas for rats (Paxinos and Watson). The 3 sections selected for quantitation contained dorsal hippocampus and were 1.6±0.05 mm posterior to bregma.
Location of counting fields—damage to the pyramidal cell layer was assessed by counting damaged neurons in the subiculum, CA1, CA3, CA3c and the hilus in the dorsal hippocampus. The neurons were assessed individually from the beginning of the subiculum to the end of the CA3c region using an Olympus Provis Ax 70 microscope at a magnification of 40×. The CA3-CA3c transition was defined by a line connecting the extremeties of the blades of the dentate gyrus. The hilus was defined as the space located between the blades of the dentate gyrus, excluding the line of CA3c pyramids.
Criteria for differentiation of damaged versus non-damaged neurons—neurons were counted only if the majority of the nucleus was present in the section. Damaged neurons were counted if they were distinctly eosinophilic or distinctly pyknotic or both. All other cells with most of the nucleus present in the section (and counting field) were counted as not damaged. Each brain was assessed on left side and right side individually and also combined. The counting fields were individually divided into subiculum, CA1, CA3, CA3c and hilus. […]

[4] = tested on: generalized tonic-clonic seizures (GTCS) in chemically induced SSSE; experiment: Experiment 2: chemically induced SSSE (cobalt/homocysteine thiolactone); conditions: for mean # GTCS: Sprague-Dawley rats
Protocol: Male Sprague-Dawley rats were prepared surgically with cobalt powder on the left frontal cortical surface.
Recording and stimulation protocol: Four epidural recording electrodes were arranged in a square grid (5 mm) over the cobalt lesion. EEG was monitored daily beginning 4-5 days following surgery. Status epilepticus was induced by i.p. injection of 5.5 mmol/kg homocysteine thiolactone whenever focal motor behaviour and EEG seizures were observed.
Drug administration: SPM 927 was administered (10-100 mg/kg) immediately following the second generalized tonic-clonic seizure (GTCS) occurring after homocysteine thiolactone injection.

[5] = 10 mg/kg, 30 min following treatment
[6] = 20 mg/kg, 30 min following treatment
[7] = 40 mg/kg, 30 min following treatment
[8] = 80 mg/kg, 30 min following treatment

Compound: CN1C(=O)CN=C(c2ccccc2)c2cc(Cl)ccc21 [DZP, diazepam]
- cumulative seizure duration over the 24 h period [1]: potently and significantly reduced
- time to the last seizure [1]: potently and significantly reduced

Compound: O=C1NC(c2ccccc2)(c2ccccc2)C(=O)N1COP(=O)(O)O [Fosphenyloin, fosphenyloin, reference compound]
- time until seizures stopped after injection [2]: ≤ 15 min
- spike frequency (number of spikes/10 min) [2]: significantly lower than in control animals but significantly higher than in SPM 927 treated rats

Compound: O=C1NC(=O)C(c2ccccc2)(c2ccccc2)N1 [PHT, phenyloin]
- cumulative seizure duration over the 24 h period [1]: potently and significantly reduced
- time to the last seizure [1]: potently and significantly reduced

Compound: COC[C@@H](NC(C)=O)C(=O)NCc1ccccc1 [SPM 927, (R)-2-acetamido-N-benzyl-3-methoxypropionamide]
- cumulative seizure duration over the 24 h period [1]: potently and significantly reduced
- time to the last seizure [1]: potently and significantly reduced
- seizure recurrence over the next 24 hrs [2]: did not recur
- time during which a few single spikes were recorded [2]: about 12 hrs
- time until seizures stopped after injection [2]: ≤ 15 min
- spike frequency (number of spikes/10 min) [2]: significantly decreased
- hippocampal damage score, CA1 ([3]; Contralateral): 1.2 ± 0.4
- hippocampal damage score, CA3 ([3]; Contralateral): 1.0 ± 0.0
- hippocampal damage score, Hilus ([3]; Contralateral): 1.4 ± 0.5
- hippocampal damage score, Subiculum ([3]; Contralateral): 1.0 ± 0.0
- hippocampal damage score, CA1 ([3]; Ipsilateral): 1.0 ± 0.0
- hippocampal damage score, CA3 ([3]; Ipsilateral): 1.0 ± 0.0
- hippocampal damage score, Hilus ([3]; Ipsilateral): 1.2 ± 0.4
- hippocampal damage score, Subiculum ([3]; Ipsilateral): 1.0 ± 0.0
- injured neurons in any hippocampal field ([3]; treated rats following SSSE): only an occasional injured neuron
- interval to 1st GTCS ([4]; 10 mg/kg): 6.6 min
- # rats with GTCS [4, 5]: 8/8
- mean # GTCS [4, 5]: 4.8
- interval to 1st GTCS ([4]; 20 mg/kg): 8.9 min
- # rats with GTCS [4, 6]: 7/8
- mean # GTCS [4, 6]: 2.7
- interval to 1st GTCS ([4]; 40 mg/kg): 5.6 min
- # rats with GTCS [4, 7]: 4/8
- mean # GTCS [4, 7]: 3.8
- interval to 1st GTCS ([4]; 80 mg/kg): 14.0 min
- # rats with GTCS [4, 8]: 3/8
- mean # GTCS [4, 8]: 2.7
- # rats with GTCS ([4]; 100 mg/kg, 30 min following treatment): 0/8
- number of rats experiencing GTCS ([4]; 10-100 mg/kg, 30 min following treatment): reduced in a dose-dependent fashion
